Literature values as cited in patent US10278869B2, “Apparatus for aspirating, irrigating and cleansing wounds” (SMITH & NEPHEW PLC, priority 2002, dated 2019).

Conditions: EP standard, CRS

With gentamycin sulphate as the substance, how does the activity read?
Its activity is 616 IU mg^−1.
